Laboratory results: US10662218B2, “Analogs of celastrol” (ERX Pharmaceuticals, Inc., priority 2015, dated 2020)
≈ marks a conversion by molar mass, not a printed value. Where “and” joins values, the source holds several entries; their conditions need not be identical. Equal entries are not always repeated. Entries after “also recorded” stand apart in the source; their conditions may differ. Where two headings read alike, the source gives them in different places. Each block holds one compound with its values, some of them ahead of it.

How the values were obtained:
[1] = tested on: C57BL/6 Diet Induced Obese (DIO) mice; assay: Oral (P.O.) administration study in DIO mice: in vivo activity, body weights; parameters: species or system mouse; settings: for area under the curve (AUC) for cumulative body weight change / area under the curve (AUC) for daily body weight change / cumulative body weight change: 2 mg/kg oral gavage once daily for 10 days, compared with controls; for Individual Body Weight, PRED 11: pre-dose phase day 11 (baseline); for Individual Body Weight, PRED 12: pre-dose phase day 12 (baseline); for Individual Body Weight, PRED 13: pre-dose phase day 13 (baseline); for Individual Body Weight, PRED 14: pre-dose phase day 14 (baseline); for Individual Body Weight, DSNG 1: dosing phase day 1; for Individual Body Weight, DSNG 2: dosing phase day 2; for Individual Body Weight: individual male animals; for Body weight, Mean / change in vivo at 2 mg/kg: male; for change in vivo at 2 mg/kg: Mus musculus, po, read-out: Body weight, %-Diff
Procedure, shortened: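 Male C57BL/6 DIO mice (21-22 weeks, 29.8-40.1 g) were gavage-acclimated with vehicle, then dosed orally once daily for 10 days at 2 mL/kg. Body weight was recorded daily before dosing. Cumulative change and AUC were analysed by one-way ANOVA with Dunnett's test.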

[2] = tested on: C57BL/6 Diet Induced Obese (DIO) mice; assay: Oral (P.O.) administration study in DIO mice: food consumption; type: in vivo, mouse; settings: 2 mg/kg oral gavage once daily for 10 days, compared with controls
Procedure: (§1) Dose formulations were administered by oral gavage once daily for 10 days at a dose volume of 2 mL/kg. Doses were based on the most recently recorded scheduled body weight.
A quantitative assessment of food consumption was recorded daily on Days 11 through 14 of the predose phase and daily prior to dosing during the dosing phase.
(§2) Descriptive statistics (n, mean, standard error of the mean, standard deviation) were completed. Additionally, one-way analysis of variance followed by Dunnett's post-hoc test were performed on body weight (cumulative body weight change), glucose (glucose percent change), and food consumption (cumulative food consumption). Area under the curve (for body weight, cumulative body weight change, daily body weight change, and food consumption) was computed for treatment groups. An appropriate comparison test, such as one-way analysis of variance and Dunnett's, was performed on the group means for the area under the curve computations. Any additional statistical analysis and interpretation of the results were the responsibility of the sponsor.

[3] = tested on: C57BL/6 Diet Induced Obese (DIO) mice; assay: Oral (P.O.) administration study in DIO mice: blood glucose level after 6 hours of fasting; type: in vivo, mouse; settings: 2 mg/kg oral gavage once daily for 10 days, compared with controls
Procedure: as §1
Blood for blood glucose was collected from all animals via tail clip on Day 14 of the predose phase, and Day 11 of the dosing phase after 6 hours of fasting. A drop of blood from each animal was placed onto two different Accu-Chek® Aviva glucometers to assess glucose values. A third value was taken, if necessary.
as §2

[4] = Compound solubility in PBS (pH 7.4), LC-MS/MS; settings: PBS (pH 7.4), pH 7.4, aqueous buffer, kinetic from dmso stock
Procedure: • Test concentration: 100 μM (1% of DMSO) • Test systems: PBS (pH 7.4) • Incubation condition: shaken (1000 rpm) for 1 h at room temperature • Sample size: Duplicates (n=2) • Bioanalytical method: LC-MS/MS

[5] = tested on: C57BL/6 Diet Induced Obese (DIO) mice; settings: I.P. administration
Procedure: The following test compounds were studied to determine any anti-obesity effect when administered to rodents. First, test compounds were formulated in 50, 100, 200, 400, 500, 1000 and 2000 μg/kg doses and administered once daily in a dose volume of 2 mL/kg i.p. for multiple days. Test compounds were compared to administration of vehicle to mice. The experiment consisted of two phases: a pre-dosing phase and a dosing phase. Weight of the animals in each testing group was measured daily. Fluid samples were taken as well.
Descriptive statistics (n, mean, standard error of the mean, standard deviation) were completed. Additionally, one way analysis of variance followed by Dunnett's post-hoc test was performed on body weight (cumulative body weight change), glucose (glucose percent change), and food consumption (cumulative food consumption). Area under the curve (for body weight, cumulative body weight change, daily body weight change, and food consumption) was computed for treatment groups. An appropriate comparison test, such as one-way analysis of variance and Dunnett's, was performed on the group means for the area under the curve computations.

[6] = in vivo
[7] = tested on: C57BL/6 Diet Induced Obese (DIO) mice; assay: Oral (P.O.) administration study in DIO mice: animal fate (mortality) and clinical observations; settings: individual male DIO mouse, 2 mg/kg; phase of fate Dosing, phase week 2, phase day 11
Procedure, shortened: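 Male C57BL/6 DIO mice received 2 mg/kg of each compound by oral gavage once daily for 10 days; vehicle was 1% methyl cellulose in citric acid/phosphate buffer. Mortality and clinical signs recorded alongside body weight, food intake and blood glucose; animals sacrificed Day 11.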

[8] = individual male DIO mouse of the 2 mg/kg group
[9] = individual male DIO mouse, 2 mg/kg, 2 mg/kg
[10] = Solubility (μM) Mean, Table 6-B, test concentration 100 μM (1% of DMSO), shaken (1000 rpm) 1 h at room temperature, n = 2
[11] = individual male DIO mouse, group dosed 2 mg/kg, 2 mg/kg

Structure (SMILES): CC1=C(O)C(=O)C=C2C1=CC=C1[C@@]2(C)CC[C@@]2(C)[C@@H]3C[C@](C)(C(=O)O)CC[C@]3(C)CC[C@]12C [ERX1000-4, Celastrol]
area under the curve (AUC) for cumulative body weight change [1]: statistically significant decreases
area under the curve (AUC) for daily body weight change [1]: statistically significant decreases
cumulative body weight change [1]: statistically significant decreases
Individual Body Weight, PRED 11 [1, 8]: 35.9 g and 35.1 g and 37.3 g and 34.5 g and 37.5 g
Individual Body Weight, PRED 12 [1, 8]: 35.2 g and 33.5 g and 37.4 g and 35.5 g and 37.3 g
Individual Body Weight, PRED 13 [1, 8]: 35.1 g and 32.5 g and 37.7 g and 34.0 g and 36.0 g
Individual Body Weight, PRED 14 [1, 8]: 35.5 g and 32.9 g and 37.9 g and 34.6 g and 37.2 g
Individual Body Weight, DSNG 1 [1, 9]: 34.6 g and 30.8 g and 37.0 g and 33.5 g and 34.9 g
Individual Body Weight, DSNG 2 [1, 9]: 34.4 g and 30.8 g and 36.4 g and 33.5 g and 35.0 g
cumulative food intake [2]: statistically significant decreases
glucose value percent change [3]: Statistically significant changes; also recorded: statistically significant decreases

Structure (SMILES): CC1=C(O)C(=O)C=C2C1=CC=C1[C@@]2(C)CC[C@@]2(C)[C@@H]3C[C@](C)(C#N)CC[C@]3(C)CC[C@]12C [ERX1015]
solubility at 1 h [4, 10]: 0.79 µM (≈ 0.341 µg/mL)
solubility at 1 h ([4]; Solubility (μM), Table 6-D): 0.791 µM (≈ 0.342 µg/mL)
activity ([5]; dose 100 μg/kg): ++

Structure (SMILES): Cc1c(O)c(O)cc2c1C(=O)C=C1[C@@]2(C)CC[C@@]2(C)[C@@H]3C[C@](C)(C(=O)O)CC[C@]3(C)CC[C@]12C [ERX1030]
Oral bioavailability [6]: −

Structure (SMILES): CC(=O)N[C@]1(C)CC[C@]2(C)CC[C@]3(C)C4=CC=C5C(=CC(=O)C(O)=C5C)[C@]4(C)CC[C@@]3(C)[C@@H]2C1 [ERX1168]
solubility at 1 h ([4]; Solubility (μM) Mean, Table 6-C, test concentration 100 μM (1% of DMSO), shaken (1000 rpm) 1 h at room temperature, n = 2): 5.05 µM (≈ 2.34 µg/mL)
area under the curve (AUC) for cumulative body weight change [1]: statistically significant decreases
area under the curve (AUC) for daily body weight change [1]: statistically significant decreases
cumulative body weight change [1]: statistically significant decreases
Individual Body Weight ([1]; 2 mg/kg, Phase Day DSNG 3): 30.7 g and 37.3 g and 34.4 g and 30.5 g and 28.3 g
Individual Body Weight ([1]; 2 mg/kg, Phase Day DSNG 4): 30.0 g and 37.5 g and 34.2 g and 29.1 g and 28.9 g
Individual Body Weight ([1]; 2 mg/kg, Phase Day DSNG 5): 29.2 g and 36.1 g and 33.2 g and 28.8 g and 28.0 g
Individual Body Weight ([1]; 2 mg/kg, Phase Day DSNG 6): 28.4 g and 33.9 g and 31.6 g and 27.0 g and 26.7 g
Individual Body Weight ([1]; 2 mg/kg, Phase Day DSNG 7): 28.9 g and 32.3 g and 30.7 g and 27.0 g and 27.3 g
Individual Body Weight ([1]; 2 mg/kg, Phase Day DSNG 8): 28.7 g and 32.7 g and 29.5 g and 27.7 g and 26.9 g
Body weight, Mean ([1]; DIO mice, 2 mg/kg, phase DSNG, Day 7): 29.2 g
Body weight, Mean ([1]; DIO mice, 2 mg/kg, phase DSNG, Day 8): 29.1 g
Body weight, Mean ([1]; DIO mice, 2 mg/kg, phase DSNG, Day 9): 30.0 g
Body weight, Mean ([1]; DIO mice, 2 mg/kg, phase DSNG, Day 10): 29.2 g
Body weight, Mean ([1]; DIO mice, 2 mg/kg, phase DSNG, Day 11): 29.2 g
Body weight, Mean ([1]; Day 1, DSNG phase, 2 mg/kg, N=5): 34.5 g
Body weight, Mean ([1]; Day 2, DSNG phase, 2 mg/kg, N=5): 34.0 g
Body weight, Mean ([1]; Day 3, DSNG phase, 2 mg/kg, N=5): 32.2 g
Body weight, Mean ([1]; Day 4, DSNG phase, 2 mg/kg, N=5): 31.9 g
Body weight, Mean ([1]; Day 5, DSNG phase, 2 mg/kg, N=5): 31.1 g
Body weight, Mean ([1]; Day 6, DSNG phase, 2 mg/kg, N=5): 29.5 g
change in vivo at 2 mg/kg ([1]; 24 h, Day 1, DSNG phase, 2 mg/kg, difference of group mean): 1%
change in vivo at 2 mg/kg ([1]; 48 h, Day 2, DSNG phase, 2 mg/kg, difference of group mean): -1%
change in vivo at 2 mg/kg ([1]; 72 h, Day 3, DSNG phase, 2 mg/kg, difference of group mean): -5%
change in vivo at 2 mg/kg ([1]; 96 h, Day 4, DSNG phase, 2 mg/kg, difference of group mean): -4%
change in vivo at 2 mg/kg ([1]; 120 h, Day 5, DSNG phase, 2 mg/kg, difference of group mean): -8%
change in vivo at 2 mg/kg ([1]; 144 h, Day 6, DSNG phase, 2 mg/kg, difference of group mean): -12%
change in vivo at 2 mg/kg ([1]; 168 h, DIO mice, 2 mg/kg, phase DSNG, Day 7, difference of group mean from vehicle group 1): -13%
change in vivo at 2 mg/kg ([1]; 192 h, DIO mice, 2 mg/kg, phase DSNG, Day 8, difference of group mean from vehicle group 1): -14%
change in vivo at 2 mg/kg ([1]; 216 h, DIO mice, 2 mg/kg, phase DSNG, Day 9, difference of group mean from vehicle group 1): -10%
change in vivo at 2 mg/kg ([1]; 240 h, DIO mice, 2 mg/kg, phase DSNG, Day 10, difference of group mean from vehicle group 1): -13%
change in vivo at 2 mg/kg ([1]; 264 h, DIO mice, 2 mg/kg, phase DSNG, Day 11, difference of group mean from vehicle group 1): -14%
Individual Body Weight, DSNG 1 [1, 9]: 33.1 g and 39.5 g and 36.9 g and 31.9 g and 31.1 g
Individual Body Weight, DSNG 2 [1, 9]: 32.5 g and 40.4 g and 36.2 g and 31.2 g and 29.9 g
Individual Body Weight, PRED 11 [1, 11]: 35.6 g and 39.3 g and 37.3 g and 35.3 g and 33.0 g
Individual Body Weight, PRED 12 [1, 11]: 35.2 g and 40.3 g and 37.2 g and 33.1 g and 31.0 g
Individual Body Weight, PRED 13 [1, 11]: 35.0 g and 40.4 g and 37.2 g and 32.5 g and 30.6 g
Individual Body Weight, PRED 14 [1, 11]: 35.1 g and 41.2 g and 37.5 g and 33.3 g and 32.1 g
area under the curve (AUC) for cumulative food intake [2]: statistically significant decreases
cumulative food intake [2]: statistically significant decreases
glucose value percent change [3]: Statistically significant changes; also recorded: statistically significant decreases
Individual Animal Fate: Fate Status [7]: Scheduled Sacrifice

More lines, main results first:

solubility at 1 h [4, 10]: 8.56 µM (≈ 3.97 µg/mL)
solubility at 1 h ([4]; Solubility (μM), Table 6-D): 8.56 µM (≈ 3.97 µg/mL)
Structure (SMILES): COC1=C(C)C2=CC=C3[C@@](C)(CC[C@@]4(C)[C@@H]5C[C@](C)(C(N)=O)CC[C@]5(C)CC[C@]34C)C2=CC1=O [ERX1031]
activity ([5]; dose 100 μg/kg): −
activity ([5]; dose 400 μg/kg): ++

solubility at 1 h [4, 10]: 1.13 µM (≈ 0.568 µg/mL)
solubility at 1 h ([4]; Solubility (μM), Table 6-D): 1.13 µM (≈ 0.568 µg/mL)
Structure (SMILES): CCNC(=O)OC1=C(C)C2=CC=C3[C@@](C)(CC[C@@]4(C)[C@@H]5C[C@](C)(C#N)CC[C@]5(C)CC[C@]34C)C2=CC1=O [ERX1047]
activity ([5]; dose 100 μg/kg): −
activity ([5]; dose 400 μg/kg): ++
